How the values were obtained:
Format in all cases: cell-based
[1] = test system: other receptor expression cells; experiment: cAMP production inhibitory activity on other receptor expression cells
[2] = test system: rat primary culture microglial cells (PMGC); experiment: Changes of intracellular calcium levels in rat primary culture microglial cells (FLIPR); details: 0.2 to 10 μM lysoPS
Method: The reactivity of rat primary culture microglial cells (PMGC) with lysoPS was examined using FLIPR. PMGC was incubated in DMEM (Invitrogen) supplemented with 10% calf fetal serum (Invitrogen), unless otherwise indicated. PMGC, which was prepared from the brain of rat of one day old one day before assay, was plated on a Black walled 96-well plate (Costar) at 5.0×10^4 cells/well, and incubated overnight at 37° C. in a CO2 incubator adjusted to 5% CO2. After lysoPS was added to the PMGC, changes of intracellular calcium levels in this case were assayed using FLIPR (Molecular Device). To assay the changes of intracellular calcium levels on FLIPR, the following pretreatment was performed. First, an assay buffer was prepared to incorporate fluorescent dye Fluo-3AM (DOJIN) in the cells or wash the cells immediately before the FLIPR assay. To a solution of 20 ml of 1M HEPES (pH 7.4) (DOJIN) to 1000 ml of HBSS (Invitrogen) (hereinafter, HBSS/HEPES solution), 10 ml of the solution mixture obtained by dissolving 710 mg of Probenecid (Sigma) in 5 ml of 1N NaOH and further adding 5 ml of the HBSS/HEPES solution thereto was added. The resulting solution was used as an assay buffer. Next, 50 μg of Fluo-3AM was dissolved in 21 μl of DMSO (DOJIN) and an equal volume of 20% Pluronic acid (Molecular Device) was further mixed therewith. […]

[3] = test system: rat peritoneal mast cells; experiment: Degranulation of rat peritoneal mast cells (β-hexosaminidase activity in supernatant); details: for degranulation: 20 minutes
Method: The rat peritoneal mast cells (RPMC) obtained by the procedure described in EXAMPLE 1 were subjected to passive sensitization for 30 minutes on ice using DNP IgE (Yamasa, 10 μg/ml), washed and plated on a 96-well plate in a final cell concentration of 100,000 cells/well in the reaction solution. RPMC was stimulated by lysoPS and DNP-BSA (Carbiochem) and the plate was centrifuged 20 minutes after. The β-hexosaminidase activity in the supernatant of the reaction solution was assayed using the degradation activity of 4-methylumbeliferryl-2-acetamido-2-deoxy-β-D-glucopyranoside (Wako Pure Chemicals) as an indicator.

[4] = test system: human mast cell line LAD2 cells; experiment: Leukotriene production of human mast cell line LAD2 cells (Leukotriene EIA)
Method: The human mast cell line LAD2 cells obtained from National Institute of Health in US were subjected to passive sensitization overnight using DNP IgE (Yamasa, 1 μg/ml), washed and plated on a 96-well plate in a final cell concentration of 100,000 cells/well in the reaction solution. LAD2 cells were stimulated by lysoPS and DNP-BSA and the plate was centrifuged 20 minutes after. The leukotriene in the supernatant of the reaction solution was assayed using Leukotriene EIA Kit (Amersham).

In the case of lysophosphatidylserine [lysoPS], the “cAMP production inhibitory action on other receptor expression cells” value [1] is reported as “not noted”, the “increase in intracellular calcium levels” value [2] is reported as “responded concentration-dependently” and the degranulation ([3]; 100 ng/ml DNP-BSA with 0.1 μM lysoPS added simultaneously) is reported as 8.4%. For the same substance, the degranulation ([3]; 100 ng/ml DNP-BSA with 0.3 μM lysoPS added simultaneously) was 14.7%, the degranulation ([3]; 100 ng/ml DNP-BSA with 1 μM lysoPS added simultaneously) was 26.0% and the degranulation ([3]; 100 ng/ml DNP-BSA with 3 μM lysoPS added simultaneously) was 36.7%. For the same substance, the degranulation ([3]; 100 ng/ml DNP-BSA with 10 μM lysoPS added simultaneously) was 45.2%, the “degranulation (in words)” value ([3]; 0.1 to 10 μM lysoPS with 100 ng/ml DNP-BSA) was “increased concentration-dependently” and the leukotriene production ([4]; 300 ng/ml DNP-BSA with 0.1 μM lysoPS added simultaneously) was 382 pg/mL. The leukotriene production ([4]; 300 ng/ml DNP-BSA with 0.3 μM lysoPS added simultaneously) was 529 pg/mL, the leukotriene production ([4]; 300 ng/ml DNP-BSA with 1 μM lysoPS added simultaneously) was 638 pg/mL and the leukotriene production ([4]; 300 ng/ml DNP-BSA with 3 μM lysoPS added simultaneously) was 750 pg/mL. The leukotriene production ([4]; 300 ng/ml DNP-BSA with 10 μM lysoPS added simultaneously) was 792 pg/mL.

Source: patent US7951548B2, “IL-13 production inhibitor” (Takeda Pharmaceutical Company Limited, priority 2005, dated 2011)
